The subject of data set [1] is Streptococcus pyogenes A65. As to the kind of experiment: MIC by agar dilution method. Conditions: read-out: minimum inhibitory concentration (MIC). Type of data set: cell-based. On the technique in general: In agar dilution, organisms are placed on agar that contains the substance at set levels.
In data set [2] the test system is Corynebacterium pyogenes C-21. The data set is described as follows: MIC by agar dilution method. It counts as cell-based. To be noted: Trueperella pyogenes, C21, read-out: minimum inhibitory concentration (MIC).
In data set [3] the test system is Escherichia coli NIHJ JC-2. The data set is described as follows: MIC by agar dilution method. Type of data set: cell-based. To be noted: NIHJJC2, read-out: minimum inhibitory concentration (MIC).
Data set [4] has as its system Escherichia coli P-140a. The data set is described as follows: MIC by agar dilution method. Type of data set: cell-based. To be noted: P140A, read-out: minimum inhibitory concentration (MIC).
In data set [5] the test system is Salmonella enteritidis No. 1891. The data set is described as follows: MIC by agar dilution method. It counts as cell-based. To be noted: Salmonella enterica, read-out: minimum inhibitory concentration (MIC).
Data set [6] has as its system Proteus mirabilis P-2381. The data set is described as follows: MIC by agar dilution method. To be noted: P2381, read-out: minimum inhibitory concentration (MIC). Type of data set: cell-based. The procedure:
(§1) The minimum inhibitory concentrations (MIC: μg/ml) of the following compounds were measured by the agar dilution method according to the procedure described in Chemotherapy, Vol. 22, No. 16, page 1126 (1974).

The subject of data set [7] is Proteus morganii Kono. As to the kind of experiment: MIC by agar dilution method. Type of data set: cell-based. To be noted: Morganella morganii, read-out: minimum inhibitory concentration (MIC). How it is done: as §1
For data set [8], the system named is Serratia marcescens IFO 3736. The data set is described as follows: MIC by agar dilution method. Type of data set: cell-based. Conditions: IFO3736, read-out: minimum inhibitory concentration (MIC). The procedure: as §1
Data set [9] concerns Shigella flexneri 2a. As to the kind of experiment: MIC by agar dilution method. Conditions: read-out: minimum inhibitory concentration (MIC). It counts as cell-based. The procedure: as §1
The subject of data set [10] is Shigella flexneri 4a P-330. The data set is described as follows: MIC by agar dilution method. It counts as cell-based. Conditions: 4AP330, read-out: minimum inhibitory concentration (MIC). The procedure: as §1
Data set [11] deals with Streptococcus pyogenes A65. The data set is described as follows: In vivo therapeutic efficacy against systemic infections in mice. To be noted: po, twice, about 5 minutes and 6 hours after intraperitoneal infection, male ddY mice, read-out: median effective dose (ED50). The source says:
Compound 1 of this invention obtained by the procedure described in Example 1 and compounds A and B were each suspended in a 0.2% aqueous solution of sodium carboxymethylcellulose. Each of the solutions was orally administered to mice infected with each of the test organisms under the conditions described below, and the median effective doses (ED50; mg/kg) obtained are shown in Table II. Male mice (ddY) weighing about 20 g (2) Streptococcus pyogenes […] Intraperitoneal infection with about 3×10^7 cells per mouse suspended in brain-heart infusion broth. […] Exp. Path. Pharm., 162, 480 (1931)].

The subject of data set [12] is Staphylococcus aureus No. 50774. The data set is described as follows: MIC by agar dilution method. Conditions: Gram-positive bacteria, read-out: minimum inhibitory concentration (MIC). It counts as cell-based.
Data set [13] deals with Streptococcus faecalis P-2473. The data set is described as follows: MIC by agar dilution method. It counts as cell-based. Conditions: Enterococcus faecalis, P2473, read-out: minimum inhibitory concentration (MIC).
In data set [14] the test system is Escherichia coli P-5101. As to the kind of experiment: MIC by agar dilution method. To be noted: P5101, read-out: minimum inhibitory concentration (MIC). Type of data set: cell-based.
Data set [15] deals with Salmonella typhimurium S-9. The data set is described as follows: MIC by agar dilution method. Type of data set: cell-based. Conditions: Salmonella enterica, read-out: minimum inhibitory concentration (MIC).
The subject of data set [16] is Enterobacter cloacae P-2540. As to the kind of experiment: MIC by agar dilution method. Type of data set: cell-based. Conditions: P2540, read-out: minimum inhibitory concentration (MIC).
The subject of data set [17] is Pseudomonas aeruginosa Tsuchijima. The data set is described as follows: MIC by agar dilution method. It counts as cell-based. To be noted: read-out: minimum inhibitory concentration (MIC).
Data set [18] concerns Pseudomonas aeruginosa No. 12. As to the kind of experiment: MIC by agar dilution method. It counts as cell-based. Conditions: read-out: minimum inhibitory concentration (MIC).
The test system of data set [19] is Klebsiella pneumoniae No. 13. The data set is described as follows: MIC by agar dilution method. It counts as cell-based. Conditions: read-out: minimum inhibitory concentration (MIC). The procedure:
as §1

Data set [20] concerns Staphylococcus aureus 209P JC-1. As to the kind of experiment: MIC by agar dilution method. Type of data set: cell-based. Conditions: Gram-positive bacteria, read-out: minimum inhibitory concentration (MIC). The procedure:
as §1

Data set [21] deals with Staphylococcus aureus No. 50774. As to the kind of experiment: In vivo therapeutic efficacy against systemic infections in mice. Conditions: NO.50774, 336 h, po, twice, about 5 minutes and 6 hours after intravenous infection, male ddY mice, observed 14 days, read-out: median effective dose (ED50). The source says:
Compound 1 of this invention obtained by the procedure described in Example 1 and compounds A and B were each suspended in a 0.2% aqueous solution of sodium carboxymethylcellulose. Each of the solutions was orally administered to mice infected with each of the test organisms under the conditions described below, and the median effective doses (ED50; mg/kg) obtained are shown in Table II. Male mice (ddY) weighing about 20 g (1) Staphylococcus aureus No. 50774: Intravenous infection with about 5×10^8 cells per mouse suspended in saline. […] Exp. Path. Pharm., 162, 480 (1931)].

For data set [22], the system named is Escherichia coli P-5101. The description is as above. Conditions: P5101, 168 h, po, twice, about 5 minutes and 6 hours after intraperitoneal infection, male ddY mice, observed 7 days, read-out: median effective dose (ED50). The source says:
(§2) Compound 1 of this invention obtained by the procedure described in Example 1 and compounds A and B were each suspended in a 0.2% aqueous solution of sodium carboxymethylcellulose. Each of the solutions was orally administered to mice infected with each of the test organisms under the conditions described below, and the median effective doses (ED50; mg/kg) obtained are shown in Table II. Male mice (ddY) weighing about 20 g (3) Escherichia coli P-5101: Intraperitoneal infection with about 9×10^6 cells per mouse suspended in trypto-soy broth with 4% mucin. […] Exp. Path. Pharm., 162, 480 (1931)].

For data set [23], the system named is Pseudomonas aeruginosa No. 12. The description is as above. To be noted: po, twice, about 5 minutes and 6 hours after intraperitoneal infection, male ddY mice, read-out: median effective dose (ED50).
Excerpt: as §2, with “(4) Pseudomonas aeruginosa No. 12:” for “(3) Escherichia coli P-5101:”, “4×10^3” for “9×10^6”

The nature of data set [24]: Acute oral toxicity in mice. Conditions: mouse, in vivo, male ddY mice, deaths counted after 7 days, Behrens-Kaerber method, read-out: median lethal dose (LD50). The procedure:
A suspension containing each of compound 1 of the invention and compound A in various concentrations was orally given to male mice (ddY) at a volume of 0.1 ml per 10 g of body weight.

Converted amounts (≈) assume the structure as drawn.

`CCn1cc(C(=O)O)c(=O)c2cc(F)c(N3CCN(C)CC3)nc21` [Compound A, 1-Ethyl-6-fluoro-1,4-dihydro-7-(4-methyl-1-piperazinyl)-4-oxo-1,8-naphthyridine-3-carboxylic acid]: the MIC in data set [1] came out at 6.25 µg/mL (≈ 18.7 µM); in data set [2], 6.25 µg/mL (≈ 18.7 µM); in data set [3] it was 0.39 µg/mL (≈ 1.17 µM); in [4], 0.39 µg/mL (≈ 1.17 µM); in data set [5] it was 0.1 µg/mL (≈ 0.299 µM); in data set [6], 3.13 µg/mL (≈ 9.36 µM). The MIC in data set [7] was found to be 0.78 µg/mL (≈ 2.33 µM); in data set [8] it was 1.56 µg/mL (≈ 4.67 µM); in data set [9], 0.39 µg/mL (≈ 1.17 µM); in data set [10], 0.78 µg/mL (≈ 2.33 µM). The median effective dose (ED50) (commonly the midpoint of the dose-response relation) in data set [11] was over 50 mg/kg.
As to `O=C(O)c1cn(CCF)c2nc(N3CCNCC3)c(F)cc2c1=O` [Compound B, 6-Fluoro-1-(2-fluoroethyl)-1,4-dihydro-4-oxo-7-(1-piperazinyl)-1,8-naphthyridine-3-carboxylic acid], the MIC is 1.56 µg/mL (≈ 4.61 µM) in [12]; 12.5 µg/mL (≈ 36.9 µM) in [13]; 12.5 µg/mL (≈ 36.9 µM) in [1]; 1.56 µg/mL (≈ 4.61 µM) in [2]; 0.2 µg/mL (≈ 0.591 µM) in data set [3]; 0.1 µg/mL (≈ 0.296 µM) in [14]. The MIC was found to be 0.1 µg/mL (≈ 0.296 µM) in data set [4]; 0.1 µg/mL (≈ 0.296 µM) in data set [15]; 0.1 µg/mL (≈ 0.296 µM) in data set [5]; 0.1 µg/mL (≈ 0.296 µM) in data set [16]; 0.78 µg/mL (≈ 2.31 µM) in data set [17]; 0.78 µg/mL (≈ 2.31 µM) in [18]. In addition, the MIC stood at 0.78 µg/mL (≈ 2.31 µM) in data set [19]; 0.39 µg/mL (≈ 1.15 µM) in data set [6]; 0.2 µg/mL (≈ 0.591 µM) in data set [7]; 0.39 µg/mL (≈ 1.15 µM) in data set [8]; 0.2 µg/mL (≈ 0.591 µM) in data set [9]; 0.1 µg/mL (≈ 0.296 µM) in data set [10]. In data set [20], the MIC was found to be 0.39 µg/mL (≈ 1.15 µM). The ED50 worked out at 11.5 mg/kg in [21], 50 mg/kg in [11], 3 mg/kg in data set [22] and 27.2 mg/kg in data set [23].
For `CN1CCN(c2nc3c(cc2F)c(=O)c(C(=O)O)cn3CCF)CC1` [Compound 1, 6-Fluoro-1-(2-fluoroethyl)-1,4-dihydro-7-(4-methyl-1-piperazinyl)-4-oxo-1,8-naphthyridine-3-carboxylic acid], the MIC worked out at 0.39 µg/mL (≈ 1.11 µM) in [12]; 12.5 µg/mL (≈ 35.5 µM) in data set [13]; 12.5 µg/mL (≈ 35.5 µM) in [1]; 6.25 µg/mL (≈ 17.7 µM) in data set [2]; 0.2 µg/mL (≈ 0.568 µM) in [3]; 0.1 µg/mL (≈ 0.284 µM) in [14]. Further, the MIC is 0.1 µg/mL (≈ 0.284 µM) in [4]; 0.2 µg/mL (≈ 0.568 µM) in data set [15]; 0.1 µg/mL (≈ 0.284 µM) in data set [5]; 0.2 µg/mL (≈ 0.568 µM) in [16]; 3.13 µg/mL (≈ 8.88 µM) in data set [17]; 1.56 µg/mL (≈ 4.43 µM) in data set [18]. For the same compound, the MIC in [19] is 0.39 µg/mL (≈ 1.11 µM); in data set [6], 0.78 µg/mL (≈ 2.21 µM); in data set [7], 0.39 µg/mL (≈ 1.11 µM); in [8], 1.56 µg/mL (≈ 4.43 µM); in data set [9], 0.39 µg/mL (≈ 1.11 µM); in data set [10], 0.1 µg/mL (≈ 0.284 µM). The MIC in data set [20] amounted to 0.78 µg/mL (≈ 2.21 µM). The ED50 in [21] was 1.4 mg/kg; in data set [11], 14.9 mg/kg; in data set [22], 0.52 mg/kg; in [23] it was 4.2 mg/kg. In data set [24], the LD50 – broadly, the dose expected to kill half of the subjects tested – at 168 h is over 1800 mg/kg.
